For nine compounds, IC50, Activity and inhibition results are on record in ChEMBL document CHEMBL5252609, “Design, synthesis, and antitumor evaluation of morpholine substituted bisnaphthalimides as DNA targeting agents” (Bioorg Med Chem Lett, 2023).

For test [1], the system named is CNE-2. The test is described as follows: Antiproliferative activity against human CNE-2 cells assessed as cell growth inhibition by MTT assay. Type of test: functional, cell-based. In general terms: Tetrazolium dyes change colour on reduction, which living cells bring about.
The test system of test [2] is T-24. The test is described as follows: Antiproliferative activity against human T24 cells assessed as cell growth inhibition by MTT assay. Type of test: functional, cell-based.
Test [3] concerns A2780. Briefly: Antiproliferative activity against human A2780 cells assessed as cell growth inhibition by MTT assay. Type of test: functional, cell-based.
The test system of test [4] is MGC-803. The test is described as follows: Antiproliferative activity against human MGC-803 cells assessed as cell growth inhibition by MTT assay. Type of test: functional, cell-based.
The species named for test [5] is Homo sapiens. The test is described as follows: Binding affinity to pBR322 DNA (unknown origin) assessed as induced retardation of DNA migration at 20 to 100 uM by gel electrophoresis assay. Particulars: dose 20-100 µM.
The species named for test [6] is Homo sapiens. Briefly: Binding affinity to pBR322 DNA (unknown origin) assessed as DNA intercalation at 20 to 100 uM by electrophoresis assay. The settings on record: dose 20-100 µM.
Test [7] addresses T1, DNA topoisomerase 1 (Homo sapiens) (UniProt P11387).
T1 sequence (whole entry): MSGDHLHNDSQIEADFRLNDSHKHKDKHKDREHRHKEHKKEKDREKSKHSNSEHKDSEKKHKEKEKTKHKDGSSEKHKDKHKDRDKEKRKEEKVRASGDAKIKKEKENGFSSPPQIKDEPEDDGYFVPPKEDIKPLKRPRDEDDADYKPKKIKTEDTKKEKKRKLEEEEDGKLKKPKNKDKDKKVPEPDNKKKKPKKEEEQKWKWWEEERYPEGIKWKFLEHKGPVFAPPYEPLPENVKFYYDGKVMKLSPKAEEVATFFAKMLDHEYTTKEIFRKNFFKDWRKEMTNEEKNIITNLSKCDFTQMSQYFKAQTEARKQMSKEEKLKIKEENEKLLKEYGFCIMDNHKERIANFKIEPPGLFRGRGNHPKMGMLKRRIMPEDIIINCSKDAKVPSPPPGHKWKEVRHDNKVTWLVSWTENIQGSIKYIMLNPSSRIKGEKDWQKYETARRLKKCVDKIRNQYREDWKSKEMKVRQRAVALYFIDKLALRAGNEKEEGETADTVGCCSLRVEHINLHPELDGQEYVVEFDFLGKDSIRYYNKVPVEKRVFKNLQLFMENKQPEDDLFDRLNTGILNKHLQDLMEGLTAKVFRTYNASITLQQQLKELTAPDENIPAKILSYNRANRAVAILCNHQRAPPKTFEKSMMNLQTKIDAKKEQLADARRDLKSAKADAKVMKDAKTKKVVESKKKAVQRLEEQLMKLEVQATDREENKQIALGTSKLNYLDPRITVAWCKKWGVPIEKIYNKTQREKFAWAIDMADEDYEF
The test is described as follows: Inhibition of human DNA topoisomerase 1 assessed as reduction in pBR322 DNA relaxation upto 100 uM by gel electrophoresis method.

In test [8] the test system is MGC-803. Briefly: Antitumor activity against human MGC-803 cells xenografted in nude mouse assessed as reduction in tumor volume growth rate at 4 mg/kg, ip administrated every other day for 21 days relative to control. Type of test: functional. Details: scale not given: the % may be the effect or the level left. The settings on record: time 21 day.
The subject of test [9] is MGC-803. Briefly: Antitumor activity against human MGC-803 cells xenografted in nude mouse assessed as reduction in tumor weight at 4 mg/kg, ip administrated every other day for 21 days relative to control. Type of test: functional. The settings on record: time 21 day. Details: scale not given: the % may be the effect or the level left. In general terms: Xenograft models place foreign cells or tissue in a host animal.

The subject of test [10] is MGC-803. Briefly: Toxicity in nude mouse xenografted with human MGC-803 cells assessed as morphological changes in liver at 8 mg/kg, ip administrated every other day for 21 days. Type of test: functional, organism-based. Particulars: time 21.0 day.

Activity calls are given as the source filed them. The calls are words filed in the database; no cut-off is given here.

For `O=C1c2cccc3c(N4CCOCC4)c([N+](=O)[O-])cc(c23)C(=O)N1CCc1ccc2c(c1)OCO2`, the IC50 was more than 50 µM in test [1], 23.6 µM in test [2], 28.4 µM in [3] and 23.1 µM in test [4].
The corresponding values for `O=C1c2cccc3c(N4CCC(N5CCCCC5)CC4)c([N+](=O)[O-])cc(c23)C(=O)N1CCNCCN1C(=O)c2cccc3c(N4CCC(N5CCCCC5)CC4)c([N+](=O)[O-])cc(c23)C1=O` are 9.25 µM, 14.8 µM, more than 50 µM and more than 50 µM.
Turning to `CN1CCN(c2c([N+](=O)[O-])cc3c4c(cccc24)C(=O)N(CCNCCN2C(=O)c4cccc5c(N6CCN(C)CC6)c([N+](=O)[O-])cc(c45)C2=O)C3=O)CC1`, the IC50 in test [1] was determined as 0.34 µM; in [2], 0.65 µM; in test [3], 0.42 µM; in [4], 2.05 µM. Moreover, the result in test [5] and in [6] was Active. In test [7], the inhibition entry is “inactive”.
Take `CN(C)CCN1C(=O)c2cccc3cc(N)cc(c23)C1=O` [AMONAFIDE]: the half-inhibitory concentration (IC50) in test [1] came out at 8.65 µM; in test [2], 7.23 µM; in [3], 11.7 µM; in test [4], 5.25 µM.
The corresponding values for `CC(C)(C)OC(=O)N1CCN(c2c([N+](=O)[O-])cc3c4c(cccc24)C(=O)N(CCNCCN2C(=O)c4cccc5c(N6CCN(C(=O)OC(C)(C)C)CC6)c([N+](=O)[O-])cc(c45)C2=O)C3=O)CC1` are more than 50 µM, more than 50 µM, more than 50 µM and more than 50 µM.
Take `O=C1c2cccc3cc([N+](=O)[O-])cc(c23)C(=O)N1CCNCCN1C(=O)c2cccc3cc([N+](=O)[O-])cc(c23)C1=O`: the IC50 in [1] is 4.51 µM; in [2], 3.45 µM; in [3] it was 2.79 µM; in test [4] it was 14.6 µM. Moreover, the result in test [5] and in test [6] was inactive. The inhibition entry in [7] was “inactive”.
As to `O=C1c2cccc3c(N4CCOCC4)c([N+](=O)[O-])cc(c23)C(=O)N1CCO`, the IC50 amounted to 16.4 µM in test [1], 9.34 µM in test [2], 22.8 µM in [3] and 11.8 µM in test [4].
The like results for `O=C1c2cccc3c(N4CCCCC4)c([N+](=O)[O-])cc(c23)C(=O)N1CCNCCN1C(=O)c2cccc3c(N4CCCCC4)c([N+](=O)[O-])cc(c23)C1=O` were, in that order, more than 50 µM, more than 50 µM, more than 50 µM and more than 50 µM.
For `CN(C)CCN1C(=O)c2cccc3cc([N+](=O)[O-])cc(c23)C1=O` [MITONAFIDE], the IC50 in test [1] stood at 3.42 µM; in test [2] it was 3.25 µM; in test [3] it was 5.22 µM; in [4], 3.32 µM. Also, the Activity in [8] was 54.2%; in test [9], 34.2%; in test [10], “Toxic”.

The term IC50 denotes the midpoint of a concentration-inhibition curve.
